Measured values taken from patent publication US10988523B2, “Modified lipidated Relaxin B chain peptides and their therapeutic use” (Sanofi, priority 2018, dated 2021).
*1 amine or outer side, *2 acyl side, *3 side chain or, on linkers, in order; H or OH if unused. Where a SMILES comes first, the peptide text is derived from it. Side-chain parts run from the residue outwards. [ ]: non-standard residue; d: D form. The star is where a group is joined. γGlu = O=C(O)[C@H](CCC(=O)[*:2])N[*:1]; Stearoyl = CCCCCCCCCCCCCCCCCC(=O)*; Palmitoyl = CCCCCCCCCCCCCCCC(=O)*; αMeK = C[C@](N)(CCCCN)C(=O)O; Nle = CCCC[C@H](N)C(=O)O; AEEA = NCCOCCOCC(=O)O; Aib = CC(C)(N)C(=O)O

Biological target: T1, RXFP1 (Homo sapiens, UniProt Q9HBX9)
T1 construct: OVCAR5 cells expressing endogenous RXFP1; endogenous in cells; host or cells: OVCAR5 cells
T1 sequence (Q9HBX9 1-757): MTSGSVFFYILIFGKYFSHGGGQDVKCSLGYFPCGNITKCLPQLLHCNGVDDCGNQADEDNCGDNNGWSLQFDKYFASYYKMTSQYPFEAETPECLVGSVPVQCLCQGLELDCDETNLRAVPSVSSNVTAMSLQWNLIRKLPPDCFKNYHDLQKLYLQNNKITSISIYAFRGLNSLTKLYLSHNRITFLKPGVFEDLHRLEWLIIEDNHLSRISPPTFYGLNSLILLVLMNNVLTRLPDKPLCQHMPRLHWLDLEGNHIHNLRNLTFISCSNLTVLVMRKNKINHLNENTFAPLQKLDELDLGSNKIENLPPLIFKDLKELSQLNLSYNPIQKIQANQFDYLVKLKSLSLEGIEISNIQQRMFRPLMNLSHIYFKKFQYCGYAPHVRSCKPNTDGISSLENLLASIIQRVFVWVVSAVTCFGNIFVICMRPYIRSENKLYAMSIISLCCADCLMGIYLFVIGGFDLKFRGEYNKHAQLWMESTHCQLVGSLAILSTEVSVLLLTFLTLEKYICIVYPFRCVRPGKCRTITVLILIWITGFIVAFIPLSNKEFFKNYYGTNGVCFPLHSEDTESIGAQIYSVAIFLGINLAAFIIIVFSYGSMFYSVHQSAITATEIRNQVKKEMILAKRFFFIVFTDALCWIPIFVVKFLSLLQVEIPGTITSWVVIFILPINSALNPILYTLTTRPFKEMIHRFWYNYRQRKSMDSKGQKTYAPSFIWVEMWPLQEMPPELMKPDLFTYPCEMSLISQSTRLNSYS
Test: OVCAR5 cAMP assay (HTRF), RXFP1 agonist activity
Format: cell-based
Conditions: for EC50: OVCAR5 cells, cAMP HTRF, read-out: EC50 (nM), OVCAR 5 cells (cAMP); for Emax: OVCAR-5, maximal cAMP relative to H2-relaxin maximum (100%), read-out: EMax, OVCAR 5 cells (cAMP)
Method in brief: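 OVCAR5 cells (endogenous RXFP1) pretreated 40 min at 37° C with 1 mM IBMX, then exposed to peptides in serum-free medium for 30 min at 37° C. Lysate cAMP read by HTRF; EC50 from variable-slope sigmoidal fit; Emax as % of H2-relaxin maximal cAMP in same run.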

| SMILES | EC50 | Emax |
| --- | --- | --- |
| CCCCCCCCCCCCCCCC(=O)N[C@@H](CCC(=O)N[C@@H](CCC(=O)N[C@@H](CCC(=O)N[C@@H](CCC(=O)NCCOCCOCC(=O)NCCOCCOCC(=O)NCCOCCOCC(=O)NCCCC[C@H](NC(=O)[C@H](CCCCNC(C)=O)NC(=O)[C@H](CCCCN)NC(=O)[C@H](CCCNC(=N)N)NC(=O)[C@](C)(CCCCN)NC(=O)[C@H](CO)NC(=O)[C@H](Cc1c[nH]c2ccccc12)NC(=O)[C@@H](NC(=O)[C@H](CO)NC(=O)[C@H](CCCC)NC(=O)CNC(=O)[C@H](CCC(=O)O)NC(=O)C(C)(C)NC(=O)C(C)(C)NC(=O)[C@@H](NC(=O)[C@H](CCCCNC(C)=O)NC(=O)[C@H](C)NC(=O)[C@H](CCCNC(=N)N)NC(=O)[C@@H](NC(=O)[C@H](CCCCN)NC(=O)[C@H](CCC(=O)O)NC(=O)[C@H](CCCNC(=N)N)NC(=O)CNC(=O)[C@H](CCC(=O)O)NC(=O)[C@H](CC(C)C)NC(C)=O)C(C)C)[C@@H](C)CC)[C@@H](C)O)C(N)=O)C(=O)O)C(=O)O)C(=O)O)C(=O)O [compound 65] (Ac-LEGREKVRAK(Ac)I[Aib][Aib]EG[Nle]STWS[αMeK]RKK(Ac)K([AEEA-AEEA-AEEA-γGlu-γGlu-γGlu-γGlu-Palmitoyl])-NH2) | 0.12 nM | 93% |
| CCCCCCCCCCCCCCCC(=O)N[C@@H](CCC(=O)N[C@@H](CCC(=O)N[C@@H](CCC(=O)NCCCC[C@H](NC(=O)COCCOCCNC(=O)COCCOCCNC(=O)COCCOCCNC(=O)[C@H](CCCCNC(C)=O)NC(=O)[C@H](CCCCN)NC(=O)[C@H](CCCNC(=N)N)NC(=O)C(C)(C)NC(=O)[C@H](CO)NC(=O)[C@H](Cc1c[nH]c2ccccc12)NC(=O)[C@@H](NC(=O)[C@H](CO)NC(=O)[C@H](CCCC)NC(=O)CNC(=O)[C@H](CCC(=O)O)NC(=O)C(C)(C)NC(=O)C(C)(C)NC(=O)[C@@H](NC(=O)[C@H](CCCCNC(C)=O)NC(=O)[C@H](C)NC(=O)[C@H](CCCNC(=N)N)NC(=O)[C@@H](NC(=O)[C@H](CCCCN)NC(=O)[C@H](CCC(=O)O)NC(=O)[C@H](CCCNC(=N)N)NC(=O)CNC(=O)[C@H](CCC(=O)O)NC(=O)[C@H](CC(C)C)NC(C)=O)C(C)C)[C@@H](C)CC)[C@@H](C)O)C(N)=O)C(=O)O)C(=O)O)C(=O)O [compound 114] (Ac-LEGREKVRAK(Ac)I[Aib][Aib]EG[Nle]STWS[Aib]RKK(Ac)[AEEA][AEEA][AEEA]K([γGlu-γGlu-γGlu-Palmitoyl])-NH2) | – | 90% |
| CCCCCCCCCCCCCCCC(=O)N[C@@H](CCC(=O)N[C@@H](CCC(=O)N[C@@H](CCC(=O)NCCCC[C@H](NC(=O)COCCOCCNC(=O)COCCOCCNC(=O)[C@H](CCCCN)NC(=O)[C@H](CCCNC(=N)N)NC(=O)C(C)(C)NC(=O)[C@H](CO)NC(=O)[C@H](Cc1c[nH]c2ccccc12)NC(=O)[C@@H](NC(=O)[C@H](CO)NC(=O)[C@H](CCCC)NC(=O)CNC(=O)[C@H](CCC(=O)O)NC(=O)C(C)(C)NC(=O)C(C)(C)NC(=O)[C@@H](NC(=O)[C@H](CCC(N)=O)NC(=O)[C@H](C)NC(=O)[C@H](CCCNC(=N)N)NC(=O)[C@@H](NC(=O)[C@H](CCCCN)NC(=O)[C@H](CCC(=O)O)NC(=O)[C@H](CCCNC(=N)N)NC(=O)CNC(=O)[C@H](CCC(=O)O)NC(=O)[C@H](CC(C)C)NC(C)=O)C(C)C)[C@@H](C)CC)[C@@H](C)O)C(N)=O)C(=O)O)C(=O)O)C(=O)O [compound 11] (Ac-LEGREKVRAQI[Aib][Aib]EG[Nle]STWS[Aib]RK[AEEA][AEEA]K([γGlu-γGlu-γGlu-Palmitoyl])-NH2) | – | 89% |

Other lines, results leading:

| EC50 | Emax | SMILES |
| --- | --- | --- |
| 26.7 nM | 98% | CCCCCCCCCCCCCCCC(=O)N[C@@H](CCC(=O)N[C@@H](CCC(=O)N[C@@H](CCC(=O)NCCCC[C@H](NC(=O)[C@H](CCCCN)NC(=O)[C@H](CCCNC(=N)N)NC(=O)C(C)(C)NC(=O)[C@H](CO)NC(=O)[C@H](Cc1c[nH]c2ccccc12)NC(=O)[C@@H](NC(=O)[C@H](CO)NC(=O)[C@H](CCCC)NC(=O)CNC(=O)[C@H](CCC(=O)O)NC(=O)C(C)(C)NC(=O)C(C)(C)NC(=O)[C@@H](NC(=O)[C@H](CCC(N)=O)NC(=O)[C@H](C)NC(=O)[C@H](CCCNC(=N)N)NC(=O)[C@@H](NC(=O)[C@H](CCCCN)NC(=O)[C@H](CCC(=O)O)NC(=O)[C@H](CCCNC(=N)N)NC(=O)CNC(=O)[C@H](CCC(=O)O)NC(=O)[C@H](CC(C)C)NC(C)=O)C(C)C)[C@@H](C)CC)[C@@H](C)O)C(N)=O)C(=O)O)C(=O)O)C(=O)O [compound 8] (Ac-LEGREKVRAQI[Aib][Aib]EG[Nle]STWS[Aib]RKK([γGlu-γGlu-γGlu-Palmitoyl])-NH2) |
| 0.03 nM | 79% | CCCCCCCCCCCCCCCCCC(=O)N[C@@H](CCC(=O)N[C@@H](CCC(=O)N[C@@H](CCC(=O)N[C@@H](CCC(=O)NCCOCCOCC(=O)NCCOCCOCC(=O)NCCOCCOCC(=O)NCCCC[C@H](NC(=O)[C@H](CCCCN)NC(=O)[C@H](CCCCN)NC(=O)[C@H](CCCNC(=N)N)NC(=O)C(C)(C)NC(=O)[C@H](CO)NC(=O)[C@H](Cc1c[nH]c2ccccc12)NC(=O)[C@@H](NC(=O)[C@H](CO)NC(=O)[C@H](CCCC)NC(=O)CNC(=O)[C@H](CCC(=O)O)NC(=O)C(C)(C)NC(=O)C(C)(C)NC(=O)[C@@H](NC(=O)[C@H](CCCCNC(C)=O)NC(=O)[C@H](C)NC(=O)[C@H](CCCNC(=N)N)NC(=O)[C@@H](NC(=O)[C@H](CCCCN)NC(=O)[C@H](CCC(=O)O)NC(=O)[C@H](CCCNC(=N)N)NC(=O)CNC(=O)[C@H](CCC(=O)O)NC(=O)[C@H](CC(C)C)NC(C)=O)C(C)C)[C@@H](C)CC)[C@@H](C)O)C(N)=O)C(=O)O)C(=O)O)C(=O)O)C(=O)O [compound 89] (Ac-LEGREKVRAK(Ac)I[Aib][Aib]EG[Nle]STWS[Aib]RKKK([AEEA-AEEA-AEEA-γGlu-γGlu-γGlu-γGlu-Stearoyl])-NH2) |
| 0.03 nM | 88% | CCCCCCCCCCCCCCCCCC(=O)N[C@@H](CCC(=O)NCCOCCOCC(=O)NCCOCCOCC(=O)N[C@@H](CCC(=O)N[C@@H](CCC(=O)NCCCC[C@H](NC(=O)[C@H](CCCCN)NC(=O)[C@H](CCCCN)NC(=O)[C@H](CCCNC(=N)N)NC(=O)C(C)(C)NC(=O)[C@H](CO)NC(=O)[C@H](Cc1c[nH]c2ccccc12)NC(=O)[C@@H](NC(=O)[C@H](CO)NC(=O)[C@H](CCCC)NC(=O)CNC(=O)[C@H](CCC(=O)O)NC(=O)C(C)(C)NC(=O)C(C)(C)NC(=O)[C@@H](NC(=O)[C@H](CCC(N)=O)NC(=O)[C@H](C)NC(=O)[C@H](CCCNC(=N)N)NC(=O)[C@@H](NC(=O)[C@H](CCCCN)NC(=O)[C@H](CCC(=O)O)NC(=O)[C@H](CCCNC(=N)N)NC(=O)CNC(=O)[C@H](CCC(=O)O)NC(=O)[C@H](CC(C)C)NC(C)=O)C(C)C)[C@@H](C)CC)[C@@H](C)O)C(N)=O)C(=O)O)C(=O)O)C(=O)O [compound 105] (Ac-LEGREKVRAQI[Aib][Aib]EG[Nle]STWS[Aib]RKKK([γGlu-γGlu-AEEA-AEEA-γGlu-Stearoyl])-NH2) |
